# Values quoted from earlier work, collected in US20120141611A1, “METHODS AND COMPOSITIONS USING ERGOTHIONEINE TO TREAT A VARIETY OF HEALTH RELATED FACTORS” (Oxis International Inc., priority 2010, published 2012).
# Values joined by “and” are separate entries in the source; they are usually repeats but may differ in a detail not shown here. Equal values may be shown once. “Also recorded” adds a separate entry of the source. Read-outs that look alike come from different tables or passages of the source.
# Experiments:
# [1] = Rat, cited from earlier work
# [2] = cited from earlier work
# [3] = Dog, cited from earlier work
# [4] = cited from earlier work; remark: listed apart in the source
# [5] = cited from earlier work; remark: listed apart in the source
# [6] = cited from earlier work; remark: listed apart in the source
# [7] = Ox; cited from earlier work
# [8] = Sheep; cited from earlier work
# [9] = Fowl; cited from earlier work
# [10] = TLC densitometry, cited from earlier work
# [11] = rat; cited from earlier work
# [12] = cited from earlier work; remark: listed apart in the source
# [13] = animal studies, in the diet; cited from earlier work
# [14] = into the organs, principally the liver; cited from earlier work
# erythrocyte membrane = settings: cited from earlier work
# [15] = cited from earlier work; remark: listed apart in the source
# [16] = physiologic pH, does not auto-oxidize; cited from earlier work
# Mn-superoxide dismutase = molecular target: T1, Mn-superoxide dismutase (Mus musculus, UniProt P09671); settings: 12.5 mM; cited from earlier work
# T1 sequence (P09671 25-222): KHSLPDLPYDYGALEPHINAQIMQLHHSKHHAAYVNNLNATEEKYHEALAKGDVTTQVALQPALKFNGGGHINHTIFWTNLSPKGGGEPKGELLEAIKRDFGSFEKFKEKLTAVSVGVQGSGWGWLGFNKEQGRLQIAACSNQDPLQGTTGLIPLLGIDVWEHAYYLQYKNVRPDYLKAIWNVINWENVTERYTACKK
# Cu/Zn SOD = Cu/Zn SOD (Mus musculus, UniProt P08228); settings: 12.5 mM; cited from earlier work
# Chain of Cu/Zn SOD (P08228 whole entry): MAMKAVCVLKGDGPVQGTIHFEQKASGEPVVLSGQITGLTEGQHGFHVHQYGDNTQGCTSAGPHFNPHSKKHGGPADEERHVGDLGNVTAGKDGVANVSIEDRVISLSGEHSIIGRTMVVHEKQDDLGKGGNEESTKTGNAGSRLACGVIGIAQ
# glutathione peroxidase = settings: mouse liver cytosol fractions; cited from earlier work
# isolated rat heart = settings: 0.1 mM; cited from earlier work
# isolated rabbit heart = settings: cited from earlier work
# erythrocytes = settings: added to hemolyzed erythrocytes or erythrocyte suspensions; cited from earlier work
# mouse skin = settings: UV-induced skin damage; cited from earlier work
# spermatozoa = settings: cited from earlier work
# A549 cells = settings: cited from earlier work
# rat retina = settings: NMDA, cited from earlier work
# [17] = physiological concentrations; cited from earlier work
# [18] = physiological concentrations; cited from earlier work; remark: listed apart in the source
# [19] = ergothioneine ingestion or administration, humans or animals; cited from earlier work
# [20] = cited from earlier work; remark: listed apart in the source
# [21] = 225 g rat, controlled diet of ergothioneine supplementation
smiles,measurement,setting,value
"C[N+](C)(C)[C@@H](Cc1c[nH]c(=S)[nH]1)C(=O)[O-] [Ergothioneine, ergothioneine]",Concentration of LE in tissue,[1]; Heart,1.5 mgs/100 gm fresh tissue
same,Concentration of LE in tissue,[1]; Intestine,0.6 mgs/100 gm fresh tissue
same,Concentration of LE in tissue,[1]; Kidney,4.3 mgs/100 gm fresh tissue
same,Concentration of LE in tissue,[1]; Liver,13.3 mgs/100 gm fresh tissue
same,Concentration of LE in tissue,[1]; Lungs,1.5 mgs/100 gm fresh tissue
same,Concentration of LE in tissue,[1]; Muscle,0.7 mgs/100 gm fresh tissue
same,Concentration of LE in tissue,[1]; Plasma,0.0 mgs/100 gm fresh tissue
same,Concentration of LE in tissue,[1]; RBC,10.4 mgs/100 gm fresh tissue
same,Concentration of LE in tissue,[1]; Spleen,1.1 mgs/100 gm fresh tissue
same,Concentration of LE in tissue,[1]; Stomach,0.4 mgs/100 gm fresh tissue
same,Concentration of LE in tissue,[1]; Testes,0.0 mgs/100 gm fresh tissue
same,Concentration of l-ergothioneine in the blood,[1],1-6 mg/100 ml blood
same,Concentration of LE in tissue,"[2]; Rabbit, Heart",2.7 mgs/100 gm fresh tissue
same,Concentration of LE in tissue,"[2]; Rabbit, Kidney",0.3 mgs/100 gm fresh tissue
same,Concentration of LE in tissue,"[2]; Rabbit, Liver",0.3 mgs/100 gm fresh tissue
same,Concentration of LE in tissue,"[2]; Rabbit, Lungs",0.3 mgs/100 gm fresh tissue
same,Concentration of LE in tissue,"[2]; Rabbit, RBC",10 mgs/100 gm fresh tissue
same,Concentration of LE in tissue,"[2]; Rabbit, Spleen",1.0 mgs/100 gm fresh tissue
same,Concentration of LE in tissue,"[2]; Rabbit, Testes",0.1 mgs/100 gm fresh tissue
same,Concentration of l-ergothioneine in the blood,[2]; Rabbit,1-10 mg/100 ml blood
same,Ergothioneine in optic nerves,[2]; optic nerves of the rabbit,30 µg/g
same,Concentration of LE in tissue,[3]; Heart,8.9 mgs/100 gm fresh tissue
same,Concentration of LE in tissue,[3]; Kidney,1.6 mgs/100 gm fresh tissue
same,Concentration of LE in tissue,[3]; Liver,0.9 mgs/100 gm fresh tissue
same,Concentration of LE in tissue,[3]; Lungs,0.6 mgs/100 gm fresh tissue
same,Concentration of LE in tissue,[3]; RBC,6.6 mgs/100 gm fresh tissue
same,Concentration of LE in tissue,[3]; Spleen,1.1 mgs/100 gm fresh tissue
same,Concentration of LE in tissue,[3]; Testes,0.0 mgs/100 gm fresh tissue
same,Concentration of l-ergothioneine in the blood,[3],3-6 mg/100 ml blood
same,Concentration of LE in tissue,"[4]; Cat, Heart",0.0 mgs/100 gm fresh tissue
same,Concentration of LE in tissue,"[4]; Cat, Kidney",3.1 mgs/100 gm fresh tissue
same,Concentration of LE in tissue,"[4]; Cat, Liver",2.7 mgs/100 gm fresh tissue
same,Concentration of LE in tissue,"[4]; Cat, Lungs",0.8 mgs/100 gm fresh tissue
same,Concentration of LE in tissue,"[4]; Cat, RBC",2.9 mgs/100 gm fresh tissue
same,Concentration of LE in tissue,"[4]; Cat, Testes",0.0 mgs/100 gm fresh tissue
same,Concentration of l-ergothioneine in the blood,[4]; Cat,0.5-2 mg/100 ml blood
same,Ergothioneine in brain,[4]; brains of cats,3.0 µg/g
same,Concentration of l-ergothioneine in the blood,[5]; Man,1-4 mg/100 ml blood
same,Levels in human blood cells,[5]; healthy males from Saudi Arabia,1-4 mg/100 mL
same,Concentration of l-ergothioneine in the blood,[6]; G. Pig,1-4 mg/100 ml blood
same,Ergothioneine in brain,[6]; brains of guinea-pigs,10 µg/g
same,Concentration of l-ergothioneine in the blood,[7],0.5-2 mg/100 ml blood
same,Concentration of l-ergothioneine in the blood,[8],2-6 mg/100 ml blood
same,Concentration of l-ergothioneine in the blood,[9],2-10 mg/100 ml blood
same,Level in rat tissue,[10]; brain,0.41 mg/100 g
same,Level in rat tissue,[10]; kidney,1.58 mg/100 g
same,Level in rat tissue,[10]; liver,7.82 mg/100 g
same,Level in rat tissue,[10]; plasma,0.21 mg/100 g
same,Level in rat tissue,[10]; testicle,0.5 mg/100 g
same,Whole body half-life,[11],approximately 30 days
same,Absorptive gain per day,[12]; [21],20 µg/day
same,Fecal and urine loss,[12]; [21],2 ug/per day
same,Fraction of dietary ergothioneine absorbed,"[12]; 225 gm rat, 20 ug/day in the diet (Mayumi et al.)",90%
same,Time to double the total body amount of ergothioneine,"[12]; rat, 89 ug ergothioneine/kg-day supplementation",approximately 2 months
same,Accumulation rate,"[12]; rat, from gain and loss per day",90%
same,Dietary level producing measurable changes in circulating whole blood levels,[13],"1 part per 100,000"
same,Disappearance from the plasma after intravenous administration,[14],rapid disappearance
same,Amount directly penetrating the erythrocyte membrane,erythrocyte membrane,< 1%
same,Sulfur label recovered in the urine as free sulfate,[15]; 35S-ergothioneine,35-65%
same,Dose recovered by urinary excretion,"[15]; bolus injected, in approximately 6 hours",60%
same,Share of urine products identified as ergothioneine,[15]; bolus injected,About one-third
same,Share of urine products identified as hercynine,[15]; bolus injected,About one-third
same,Stability in aqueous solution,[16],very stable in aqueous solution
same,Mitochondrial Mn-superoxide dismutase activity,Mn-superoxide dismutase,nearly doubled
same,Cytosolic Cu/Zn SOD activity,Cu/Zn SOD,no increased activity
same,Glutathione peroxidase activity,glutathione peroxidase,markedly increased
same,Protection against reperfusion injury as measured by LDH release,isolated rat heart,protected the isolated rat heart against reperfusion injury
same,Protection against ischemia-reperfusion injury,isolated rabbit heart,failed to protect
same,Lactate production,erythrocytes,increased lactate production
same,Protection of mouse skin in vivo,mouse skin,failed to protect mouse skin in vivo
same,Effect on spermatozoa viability and survival under hydrogen peroxide,spermatozoa,counteracts the effects of hydrogen peroxide on spermatozoa viability and survival
same,H2O2 and TNF-alpha imposed oxidative stress in IL-8-CAT reporter system,A549 cells,inhibits
same,Loss of nonganglion cells,rat retina; rats treated with ergothioneine (43% without),31%
same,Loss of ganglion cells,rat retina; rats treated with ergothioneine (81% without),44%
same,Ameloid Precursor Protein (APP),rat retina,significant decreases
same,Protection of API against HOCl-induced inactivation,[17],protect very efficiently
same,Inactivation of hydroxyl radical,[18],potent diffusion-controlled inactivation
same,Deleterious / negative side effects,[19],No documented negative side effects; also recorded: no deleterious effects
same,Concentration of LE in the lens of the human eye,[20]; Hypermature cataract,60.8 mg LE/100 gm and 60.8 +/− 9.8 mg LE/100 gm
same,Concentration of LE in the lens of the human eye,[20]; Immature cortical cataract,79.6 mg LE/100 gm and 79.4 +/− 11.7 mg LE/100 gm
same,Concentration of LE in the lens of the human eye,[20]; Immature nuclear cataract,94.2 mg LE/100 gm and 94.2 +/− 7.3 mg LE/100 gm
same,Concentration of LE in the lens of the human eye,[20]; Mature cataract,71.7 mg LE/100 gm and 71.7 +/− 13.7 mg LE/100 gm
same,Concentration of LE in the lens of the human eye,[20]; Normal lens,115.7 mg LE/100 gm and 115.7 +/− 6.3 mg LE/100 gm
